According to patent US12606528B2, “Methods and materials for inhibiting NF-kB activity” (University of Pittsburgh - Of the Commonwealth System of …, priority 2019, dated 2026):
Like-named read-outs stand apart in the source and are kept apart here.

How the values were obtained:
NF-κB = NF-κB assay: THP1-NF-κB-LUC cells, LPS-stimulated secreted luciferase; format: cell-based; settings: THP1-NF-κB-LUC cells, read-out: IC50 (NF-κB assay)
Method in brief: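 THP1-NF-κB-LUC cells (25k/well) were pretreated with compounds for 2 h, then stimulated with LPS (10 ng/mL) for 18 h. Secreted luciferase was measured and normalized to vehicle, and IC50 was fitted from the concentration series.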

TNF release = experiment: TNF assay: TNF release from LPS-stimulated human PBMCs (TNF ELISA); format: cell-based; settings: PBMC, read-out: IC50 (TNF assay)
Method in brief: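 Human PBMCs at 10k/well pretreated with compound dilutions 2 h, then stimulated with LPS (10 ng/mL) for 18 h. TNF in supernatants quantified by ELISA; IC50 for inhibition of TNF release fitted from concentration–response.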

[1] = compounds 2 hours before LPS (10 ng/mL) for 18 hours, secreted luciferase
[2] = human PBMCs, compounds 2 hours before LPS (10 ng/ml) for 18 hours, supernatant TNF ELISA
[3] = LPS-stimulated human PBMCs, TNF ELISA

SMILES	IC50 (NF-κB; [1]) [µM]	IC50 (TNF release; [2]) [µM]	IC50 (NF-κB; LPS-stimulated) [µM]	IC50 (TNF release; [3]) [µM]
CC1Oc2cc(S(=O)(=O)NC3CCC(O)CC3)c(Br)cc2NC1=O (centres unmarked) [BC19360]	> 10	> 10		
CC1Oc2cc(S(=O)(=O)NC3CCC(C(C)(C)C)CC3)c(Br)cc2NC1=O (centres unmarked) [BC19361]	> 10	> 10		
CC1Oc2c(cc(Br)cc2S(=O)(=O)NCc2ccc(F)cc2F)NC1=O (centres unmarked) [BC19362]	0.1 to 1	> 10		
CC1Oc2c(cc(Br)cc2S(=O)(=O)NCc2ccc(OC(F)(F)F)cc2)NC1=O (centres unmarked) [BC19363]	< 0.1	> 10		
CC1Oc2c(cc(Br)cc2S(=O)(=O)NCCc2ccc(OC(F)(F)F)cc2)NC1=O (centres unmarked) [BC19364]	> 10	> 10		
CC1Oc2c(cc(Br)cc2S(=O)(=O)NCc2ccc(C(F)(F)F)cc2)NC1=O (centres unmarked) [BC19365]	1 to 10	> 10		
CC1Oc2c(cc(Br)cc2S(=O)(=O)NC2CCC(O)CC2)NC1=O (centres unmarked) [BC19366]	> 10	> 10		
CC1Oc2c(cc(Br)cc2S(=O)(=O)NC2CCC(C(C)(C)C)CC2)NC1=O (centres unmarked) [BC19367]	> 10	> 10		
CCC1Oc2cc(S(=O)(=O)NCc3ccc(F)cc3F)c(Br)cc2NC1=O (centres unmarked) [BC19368]	> 10	> 10		
CCC1Oc2cc(S(=O)(=O)NCc3ccc(OC(F)(F)F)cc3)c(Br)cc2NC1=O (centres unmarked) [BC19369]	> 10	> 10		
CCC1Oc2cc(S(=O)(=O)NCc3ccc(C(F)(F)F)cc3)c(Br)cc2NC1=O (centres unmarked) [BC19370]	> 10	> 10		
CCC1Oc2cc(S(=O)(=O)Nc3ccc(C(F)(F)F)cc3Cl)c(Br)cc2NC1=O (centres unmarked) [BC19371]	1 to 10	> 10		
CCC1Oc2cc(S(=O)(=O)NC3CCC(O)CC3)c(Br)cc2NC1=O (centres unmarked) [BC19372]	> 10	> 10		
CCC1Oc2cc(S(=O)(=O)NCCc3ccc(OC(F)(F)F)cc3)c(Br)cc2NC1=O (centres unmarked) [BC19373]	> 10	> 10		
CCC1Oc2c(cc(Br)cc2S(=O)(=O)NCc2ccc(F)cc2F)NC1=O (centres unmarked) [BC19374]	< 0.1	1 to 10		
CCC1Oc2c(cc(Br)cc2S(=O)(=O)NCc2ccc(OC(F)(F)F)cc2)NC1=O (centres unmarked) [BC19375]	< 0.1	> 10		
CCC1Oc2c(cc(Br)cc2S(=O)(=O)NCCc2ccc(OC(F)(F)F)cc2)NC1=O (centres unmarked) [BC19376]	1 to 10	> 10		
CCC1Oc2c(cc(Br)cc2S(=O)(=O)NCc2ccc(C(F)(F)F)cc2)NC1=O (centres unmarked) [BC19377]	< 0.1	> 10		
CCC1Oc2c(cc(Br)cc2S(=O)(=O)NC2CCC(O)CC2)NC1=O (centres unmarked) [BC19378]	> 10	> 10		
CCC1Oc2c(cc(Br)cc2S(=O)(=O)NC2CCC(C(C)(C)C)CC2)NC1=O (centres unmarked) [BC19379]	> 10	> 10		
CC(C)(C)C1CCC(NS(=O)(=O)c2cc(Br)cc3c2OCC(=O)N3)CC1 (centres unmarked) [BC19380]	> 10	> 10		
O=C1COc2c(cc(Br)cc2S(=O)(=O)NC2CCC(O)CC2)N1 (centres unmarked) [BC19381]	> 10	> 10		
O=C1COc2c(cc(Br)cc2S(=O)(=O)NCc2ccc(C(F)(F)F)cc2)N1 [BC19382]	> 10	> 10		
O=C1COc2c(cc(Br)cc2S(=O)(=O)NCCc2ccc(OC(F)(F)F)cc2)N1 [BC19383]	> 10	> 10		
O=C1COc2c(cc(Br)cc2S(=O)(=O)Nc2ccc(C(F)(F)F)cc2Cl)N1 [BC19384]	< 0.1	> 10		
O=C1COc2c(cc(Br)cc2S(=O)(=O)NCc2ccc(OC(F)(F)F)cc2)N1 [BC19385]	> 10	> 10		

SMILES	IC50 (NF-κB; [1]) [µM]	IC50 (TNF release; [2]) [µM]	IC50 (NF-κB; LPS-stimulated) [µM]	IC50 (TNF release; [3]) [µM]
O=C1COc2c(cc(Br)cc2S(=O)(=O)NCc2ccc(F)cc2F)N1 [BC19386]	> 10	> 10		
O=C1COc2cc(S(=O)(=O)NCCc3ccc(OC(F)(F)F)cc3)c(Br)cc2N1 [BC19387]	> 10	> 10		
CC(C)(C)C1CCC(NS(=O)(=O)c2cc3c(cc2Br)NC(=O)CO3)CC1 (centres unmarked) [BC19388]	> 10	> 10		
O=C1COc2cc(S(=O)(=O)NC3CCC(O)CC3)c(Br)cc2N1 (centres unmarked) [BC19389]	> 10	> 10		
O=C1COc2cc(S(=O)(=O)Nc3ccc(C(F)(F)F)cc3Cl)c(Br)cc2N1 [BC19390]	1 to 10	> 10		
O=C1COc2cc(S(=O)(=O)NCc3ccc(C(F)(F)F)cc3)c(Br)cc2N1 [BC19391]	> 10	> 10		
O=C1COc2cc(S(=O)(=O)NCc3ccc(OC(F)(F)F)cc3)c(Br)cc2N1 [BC19392]	> 10	> 10		
O=C1COc2cc(S(=O)(=O)NCc3ccc(F)cc3F)c(Br)cc2N1 [BC19393]	> 10	> 10		
CC1Oc2c(cc(Cl)cc2S(=O)(=O)Nc2ccc(OC(F)(F)F)cc2)NC1=O (centres unmarked) [BC19394]	< 0.1	> 10		
CN1CCN(C(=O)c2ccc3nc(-c4ccc(F)cc4)c(S(=O)(=O)c4cccc(F)c4)nc3c2)CC1 [BC19395]			0.1 to 1	< 0.1
OCCn1cc(-c2ccc3nc(-c4ccc(F)cc4)c(-c4ccc(F)cc4)nc3c2)nn1 [BC19396]			< 0.1	> 10
C#CC(=O)Nc1ccc2nc(-c3ccc(F)cc3)c(-c3ccc(F)cc3)nc2c1 [BC19397]			< 0.1	0.1 to 1
CN1CCN(C(=O)c2ccc3nc(-c4ccc(F)cc4)c(-c4ccc(Cl)cc4Cl)nc3c2)CC1 [BC19398]			0.1 to 1	> 10
CN1CCN(C(=O)c2ccc3nc(-c4ccc(F)cc4)c(-c4ccc(OC(F)(F)F)cc4)nc3c2)CC1 [BC19399]			> 10	> 10
CN1CCN(C(=O)c2cccc3nc(-c4ccc(F)cc4)c(-c4ccc(F)cc4)nc23)CC1 [BC19400]			> 10	> 10
Cn1cc(-c2cnc3nc(-c4ccc(F)cc4)c(-c4ccc(F)cc4)nc3c2)nn1 [BC19401]			< 0.1	> 10
CCCn1cc(-c2cnc3nc(-c4ccc(F)cc4)c(-c4ccc(F)cc4)nc3c2)nn1 [BC19402]			< 0.1	> 10
Fc1ccc(-c2nc3cccnc3nc2-c2ccc(F)cc2)cc1 [BC19403]			0.1 to 1	> 10
OCCn1ncc(-c2ccc3nc(-c4ccc(F)cc4)c(-c4ccc(F)cc4)nc3c2)n1 [BC19404]			1 to 10	> 10
CN1CCN(C(=O)c2ccc3nc(-c4ccc(F)cc4F)c(-c4ccccc4)nc3c2)CC1 [BC19405]			0.1 to 1	> 10
C#CCNC(=O)c1ccc2nc(-c3ccc(F)cc3F)c(-c3ccccc3)nc2c1 [BC19406]			0.1 to 1	> 10
O=C(O)c1cnc2nc(-c3ccc(F)cc3)c(-c3ccc(F)cc3)nc2c1 [BC19407]			0.1 to 1	> 10
CN1CCN(C(=O)c2cnc3nc(-c4ccc(F)cc4)c(-c4ccc(F)cc4)nc3c2)CC1 [BC19408]			0.1 to 1	> 10
O=c1c(S(=O)(=O)c2cccc(F)c2)c(O)[nH]c2ncccc12 [BC19409]	> 10	> 10		
COc1cccc(-c2nc(S(=O)(=O)c3ccc(Cl)cc3)c(S(C)(=O)=O)[nH]2)c1 [BC19410]			0.1 to 1	> 10
CC(C)S(=O)(=O)c1oc(-c2cccc(F)c2)nc1S(=O)(=O)c1ccc(Cl)cc1 [BC19411]			< 0.1	< 0.1
